“Also recorded” adds a separate entry of the source.
Legend:
[1] = Imatinib plasma levels in three CML patients; type: in vivo, human
CD34+ CP-CML cells = test: Liquid culture of CD34+ CP-CML cells (fold expansion, viable cells); type: cell-based, human; set-up: viab (%): concentration or dose not given beside the values; conditions: for viab (%) / Fold exp: serum-free medium without cytokines; for Fold exp, mean: mean of 7 patients
Experimental: Cell culture and proliferation assays. K562 cells (2×10^5) were cultured in 96-well plates, in complete Dulbecco's Modified Eagle medium supplemented with 10% fetal calf serum (Gibco®, Life technologies) alone or with variable concentrations of pioglitazone or troglitazone. […] Eight replicates were used for each set of conditions and results were obtained after three independents experiments. CD34^+ cells from patients in CP-CML at diagnosis or umbilical cord blood were immunoselected (CD34 microBead Kit, Miltenyi Biotec) according to the manufacturer's instructions. […] Ph1^+-CD34^+ cells were cultured in serum free medium (SFM) StemSpan (StemCell Technologies) without growth factors.
Flow cytometry. […] For all experiment, cell viability was assessed using SYTOX® Blue dead cell stain (Invitrogen Life Technologies).

STAT5B mRNA = test: STAT5B RT-qPCR in CP-CML cells; type: cell-based, human; conditions: CP-CML cells after 10 days of liquid culture without cytokines; normalized to GAPDH
From the text: RNA extraction and RT-qPCR analysis.

CP-CML LTC-ICs = test: LTC-IC assay with limiting dilution analysis; type: cell-based, human
Experimental: Colony Forming Cell (CFC) and Long Term Culture—Initiating Cell (LTC-IC) assays. […] Cells were scored and collected after 14 day incubation at 37° C. and 5% CO2. After scoring, colonies were washed with PBS and kept frozen in RNAlater® (Invitrogen) for subsequent analysis. […] After five weeks with weekly change of one half medium volume, all cells were transferred in alpha-MEM based methylcellulose medium (GF H4434, Stemcell technologies) to determine the total clonogenic cell content of each LTC. LTC-IC frequencies were determined using the L-Calc software (Stemcell technologies).

STAT5 = STAT5 phosphorylation (flow cytometry) and STAT5 protein (Western blot) in K562 cells; type: cell-based; conditions: Imatinib 1 μM
Experimental: Intracellular STAT5 phosphorylation assays. […] Cells were fixed and permeabilized using Cytofix/Cytoperm kit (BD Pharmingen) and stained with Alexa Fluor® 488-anti-phospho-STAT5 mAb (BD Phosflow) or Alexa Fluor® 488-isotype-matched control to obtain fluorescence minus comparative in each experiment. Analysis was carried on a minimal number of 50,000 events in the viable cell gate. […] (untreated cells p-STAT5 MFI-non treated cells isotype-control MFI)-(drug treated cells p-STAT5 MR-drug treated cells isotype-control MFI). Western blot analysis. For STAT5 protein analysis, K562 cells (2.5×10^5) were lysed in RIPA lysis buffer on ice. […] Proteins were transferred to Hybond N+ filters (Amersham). Membranes were probed with the following antibodies: STAT5 (sc-1656), actin (sc-8432), and goat anti-mouse IgG-HRP (sc-2005) (Santa Cruz Biotechnology Inc.). Antibody binding was detected by the enhanced chemiluminescence ECL+ (Amersham).

CML patients [2] = test: ACTIM clinical trial: molecular response and safety; type: in vivo, human
From the text: BCR-ABL transcript level was monitored every 3 months during the study period. Primary objective was the proportion of patients achieving a confirmed undetectable level of BCR-ABL transcript. Secondary objectives included cumulative incidence of CMR4.5 and safety.

CML patients [3] = test: BCR-ABL/ABL RT-qPCR follow-up of three CML patients given pioglitazone on imatinib; type: in vivo, human
[4] = test system: human cord blood CD34+ cells expressing BCR-ABL; test: CFC assay after lentivector-mediated expression of BCR-ABL in cord blood CD34+ cells; type: cell-based; conditions: BCR-ABL vs eGFP lentivector; drug added for 48 h prior; p<0.002
Experimental: For CFC assays, CD34^+ cells were suspended (1×10^4) in 3 ml of alpha-MEM based methylcellulose medium (GF H4434, Stemcell Technologies). Cells were scored and collected after 14 day incubation at 37° C. and 5% CO2.
An SIV GAE-SSFV-eGFP vector was used as a control.
Cells were suspended (1×10^6/ml) in StemSpan (StemCell Technologies, France) supplemented with protamine sulfate (4 μg/ml), SCF (100 ng/ml), Flt-3-L (100 ng/ml), IL-3 (20 ng/ml), and IL-6 (20 ng/ml), in a 96-well plate coated with RetroNectin® (Takara Shuzo Co., Japan). Cell suspensions were incubated for 16 hours. Lentiviral vectors were then added and cell suspensions incubated for 12 hours. Cells were washed twice before being seeded.

[5] = ACTIM companion study: imatinib trough levels; type: in vivo, human; conditions: p=ns
[6] = pioglitazone added to imatinib, 24 evaluable patients

Experimental for CP-CML CD34+ cells: CSFE assays. Fresh CD34^+-enriched cells were stained with 2 μM of 5-(and 6-) carboxyfluorescein diacetate succinimidyl diester (CFSE, Invitrogen). […] Cells were harvested at variable time points as indicated, collected in BD Trucount™ tubes for absolute count (BD Biosciences) and labeled with anti-CD45 and anti-CD34. Then, cells were diluted in 1 mL of phosphate-buffered saline (PBS, Invitrogen Life Technologies) containing 2% fetal calf serum (PAA) and stained for viability. All analyses were carried out on a BD FACS Canto2 Flow Cytometer.

For `Cc1ccc(NC(=O)c2ccc(CN3CCN(C)CC3)cc2)cc1Nc1nccc(-c2cccnc2)n1` [Imatinib], the plasma levels ([1]; Patient 1, imatinib 300-400 mg/day) was 924 ng/mL, the plasma levels ([1]; Patient 2, imatinib 300-400 mg/day) was 310 ng/mL and the plasma levels ([1]; Patient 3, imatinib 400 mg/day) was 790 ng/mL. For the same compound, the “viab (%)” value (CD34+ CP-CML cells; Patient 1, D 3 in culture) was 0.1%, the “viab (%)” value (CD34+ CP-CML cells; Patient 1, D 7 in culture) was 0.10% and the “viab (%)” value (CD34+ CP-CML cells; Patient 2, D 3 in culture) was 31.00%. For the same compound, the “viab (%)” value (CD34+ CP-CML cells; Patient 2, D 7 in culture) was 29.70%, the “viab (%)” value (CD34+ CP-CML cells; Patient 3, D 3 in culture) was 4.10% and the “viab (%)” value (CD34+ CP-CML cells; Patient 3, D 7 in culture) was 5.90%. The “viab (%)” value (CD34+ CP-CML cells; Patient 4, D 3 in culture) was 86.00%, the “viab (%)” value (CD34+ CP-CML cells; Patient 4, D 7 in culture) was 54.00% and the “viab (%)” value (CD34+ CP-CML cells; Patient 5, D 3 in culture) was 54.5%. The “viab (%)” value (CD34+ CP-CML cells; Patient 5, D 7 in culture) was 56.00%, the “viab (%)” value (CD34+ CP-CML cells; Patient 6, D 3 in culture) was 85.00% and the “viab (%)” value (CD34+ CP-CML cells; Patient 6, D 7 in culture) was 73.00%. For the same compound, the “viab (%)” value (CD34+ CP-CML cells; Patient 7, D 3 in culture) was 84.00%, the “viab (%)” value (CD34+ CP-CML cells; Patient 7, D 7 in culture) was 66.00% and the “decrease of STAT5B mRNA levels” value (STAT5B mRNA) was 1.5 fold. The “viable CD34+ cells that never divided or had divided only once” value (CP-CML CD34+ cells; Patient 4, vs. 5% for the untreated control) was 34%, the “effect on cell cycle status / quiescence” value (CP-CML CD34+ cells; liquid culture without cytokines) was “induced a selection of insensitive quiescent CML cells” and the “reduction of the frequency of CP-CML LTC-ICs (in words)” value (CP-CML LTC-ICs; p=0.067 and p=0.02) was “unable to reduce significantly”. The “action on STAT5 phosphorylation” value (STAT5) was “acts rapidly (minutes) by preventing STAT5 phosphorylation”.
With `CCc1ccc(CCOc2ccc(CC3SC(=O)NC3=O)cc2)nc1` (centres unmarked) [pioglitazone] the “patients with a confirmed undetectable level of BCR-ABL transcript” value (CML patients [2]; pioglitazone 30 mg/d 2 months then 45 mg/d added to imatinib, 24 evaluable patients) was 14%, the “discontinuation due to adverse events” value (CML patients [2]; [6]) was “No patient discontinued due to adverse events” and the main adverse events (CML patients [2]; [6]) was “weight gain and worsening fluid retention in 3 patients”. The “one year cumulative incidence of CMR4.5” value (CML patients [2]; pioglitazone added to imatinib, control group 27% (p=0.02)) was 57%, the “duration of CMR(Slog)” value (CML patients [3]; Patient 1, pioglitazone 30 mg/day added after 5 years of imatinib therapy) was 56 months and the “duration of CMR(Slog)” value (CML patients [3]; Patient 2, pioglitazone 30 mg/day added after 6 year of imatinib therapy, then withdrew) was 12 months. For the same compound, the “time without molecular relapse after stopping imatinib treatment” value (CML patients [3]; Patient 3) was 6 months, the “time to CMR(Slog)” value (CML patients [3]; Patient 3, pioglitazone 45 mg/day added to imatinib) was 6 months and the “duration of CMR(Slog)” value (CML patients [3]; Patient 3, pioglitazone 45 mg/day added to imatinib 400 mg/day) was 28 months. For the same compound, the “degree of reduction in colony forming cells (CFC), greater when BCR-ABL was expressed” value [4] was 1.9 fold, the “interaction between imatinib and pioglitazone in term of through level” value [5] was “No interaction; also recorded: lack of interaction” and the Fold exp (CD34+ CP-CML cells; Patient 1, D 3 in culture) was 0.75 fold. The “viab (%)” value (CD34+ CP-CML cells; Patient 1, D 3 in culture) was 19.00%, the Fold exp (CD34+ CP-CML cells; Patient 1, D 7 in culture) was 0.39 fold and the “viab (%)” value (CD34+ CP-CML cells; Patient 1, D 7 in culture) was 9.00%. The Fold exp (CD34+ CP-CML cells; Patient 2, D 3 in culture) was 1.25 fold, the “viab (%)” value (CD34+ CP-CML cells; Patient 2, D 3 in culture) was 47.00% and the Fold exp (CD34+ CP-CML cells; Patient 2, D 7 in culture) was 2.96 fold. For the same compound, the “viab (%)” value (CD34+ CP-CML cells; Patient 2, D 7 in culture) was 71.00%, the Fold exp (CD34+ CP-CML cells; Patient 3, D 3 in culture) was 0.27 fold and the “viab (%)” value (CD34+ CP-CML cells; Patient 3, D 3 in culture) was 9.90%. The Fold exp (CD34+ CP-CML cells; Patient 3, D 7 in culture) was 1.69 fold, the “viab (%)” value (CD34+ CP-CML cells; Patient 3, D 7 in culture) was 17.90% and the Fold exp (CD34+ CP-CML cells; Patient 4, D 3 in culture) was 2.02 fold. The “viab (%)” value (CD34+ CP-CML cells; Patient 4, D 3 in culture) was 93.00%, the Fold exp (CD34+ CP-CML cells; Patient 4, D 7 in culture) was 1.67 fold and the “viab (%)” value (CD34+ CP-CML cells; Patient 4, D 7 in culture) was 54.00%. The Fold exp (CD34+ CP-CML cells; Patient 5, D 3 in culture) was 1.32 fold, the “viab (%)” value (CD34+ CP-CML cells; Patient 5, D 3 in culture) was 73.00% and the Fold exp (CD34+ CP-CML cells; Patient 5, D 7 in culture) was 0.93 fold. For the same compound, the “viab (%)” value (CD34+ CP-CML cells; Patient 5, D 7 in culture) was 86.00%, the Fold exp (CD34+ CP-CML cells; Patient 6, D 3 in culture) was 1.69 fold and the “viab (%)” value (CD34+ CP-CML cells; Patient 6, D 3 in culture) was 88.00%. The Fold exp (CD34+ CP-CML cells; Patient 6, D 7 in culture) was 1.87 fold, the “viab (%)” value (CD34+ CP-CML cells; Patient 6, D 7 in culture) was 85.00% and the Fold exp (CD34+ CP-CML cells; Patient 7, D 3 in culture) was 0.86 fold. The “viab (%)” value (CD34+ CP-CML cells; Patient 7, D 3 in culture) was 84.00%, the Fold exp (CD34+ CP-CML cells; Patient 7, D 7 in culture) was 1.48 fold and the “viab (%)” value (CD34+ CP-CML cells; Patient 7, D 7 in culture) was 33.00%. For the same compound, the “Fold exp, mean” value (CD34+ CP-CML cells; D 3 in culture) was 1.17 fold, the “Fold exp, mean” value (CD34+ CP-CML cells; D 7 in culture) was 1.54 fold and the “decrease of STAT5B mRNA levels” value (STAT5B mRNA) was 8.5 fold. The “reduction of the frequency of CP-CML LTC-ICs” value (CP-CML LTC-ICs; limiting dilution analysis) was 2.4 fold.

From US9623015B2, “Combination of an anti-cancer agent such as a tyrosinekinase inhibitor and a STAT5 antagonist, preferably a thiazolidinedione, for eliminating hematologic cancer stem cells in vivo and for preventing hematologic cancer relapse” (Commissariat à L'Energie Atomique et aux Energies …, priority 2012, dated 2017)
